Measured values from US20110053773A1, “METHODS OF IMPROVING NUTRITIONAL VALUE OF PLANTS” (UNIVERSITY OF TENNESSEE RESEARCH FOUNDATION, priority 2009, published 2011).

What was measured:
[1] = test system: sweet corn cultivars 'Merit', 'Temptation', 'Incredible'; assay: Visual leaf tissue bleaching of sweet corn (Example 3, Table 9); type: in vivo; conditions: mesotrione 105, atrazine 560 g ai/ha
Experimental: (§1) Studies were conducted in a field in Knoxville, Tenn. to ascertain the growth, stress tolerance and nutritional quality differences following postemergence applications of herbicides mesotrione and atrazine, alone and in mixtures together, on the young sweet corn cultivars: ‘Merit’ (yellow-kernel sensitive genotype), ‘Temptation’ (bicolor tolerant genotype), and ‘Incredible’ (yellow-kernel moderately sensitive genotype).
(§2) Herbicide treatments were applied as follows: 1) untreated control; 2) mesotrione (meso) at 105 g ai/ha EPOST; 3) mesotrione at 105+atrazine at 560 g ai/ha EPOST; 4) atrazine at 560 g ai/ha EPOST; 5) mesotrione at 105 g ai/ha LPOST; 6) mesotrione at 105+atrazine at 560 g ai/ha LPOST; and 7) atrazine at 560 g ai/ha LPOST. Visual ratings of plant growth were taken during season, and kernels for carotenoids were measured at harvest.

[2] = test system: 'Riviera' bermudagrass; assay: Leaf tissue pigment concentrations of bermudagrass after mesotrione (Example 5, Table 16); type: in vivo, Cynodon dactylon (L.) Pers.; conditions: for Blade tissue pigments: Beta-carotene / Blade tissue pigments: Lutein / Blade tissue pigments: Phytoene / Blade tissue pigments: Total Carotenoids / Blade tissue pigments: Violaxanthin / Blade tissue pigments: Zeaxanthin: 0.28 kg ai×ha^−1
From the text: Greenhouse and laboratory studies were initiated with ‘Riviera’ bermudagrass (Cynodon dactylon (L.) Pers.) treated postemergence with mesotrione at 0.28 kg×ha^−1 and sampled for tissue pigment concentrations at 0, 3, 7, 14, 21, 28 and 35 days after treatment (DAT; Table 16). […] Due to the antioxidant activity of these carotenoid pigments, these increases should improve bermudagrass stress tolerance (Kopsell et al., 2010).

[3] = test system: sweet corn variety 'Incredible'; assay: Sugar and key antioxidant content of sweet corn (Example 1, Table 15); type: in vivo, Zea mays var. rugosa; conditions: rates g ai/ha: Nicosulfuron 35, Mesotrione 105, Topramezone 18, Isoxadifen-ethyl 13, all incl. treated check with atrazine 560 g ai/ha + 1% v/v crop oil concentrate
From the text: Herbicide treatments were applied in a water carrier at 23 gallons of solution per acre on a field site near Knoxville, Tenn. and Painter, Va. […] All treatments included a PRE application of atrazine plus metolachlor in order to maintain weed free conditions. In addition, all POST treatments (including the treated check) included atrazine at 560 g ai/ha and crop oil concentrate at 1% v/v. […] Sweet corn was harvested from the center two rows of each four row plot and weighed in the husk.

[4] = test system: sweet corn cultivars 'Merit', 'Temptation', 'Incredible'; assay: Kernel carotenoids of sweet corn after mesotrione and atrazine (Example 3); type: in vivo; parameters: Kernel carotenoids: Lutein / Kernel carotenoids: Zeaxanthin: unit not given here; conditions: mesotrione 105, atrazine 560 g ai/ha
Experimental: as §1, §2

[5] = 'Incredible' moderately sensitive genotype, EPOST
[6] = 'Incredible' moderately sensitive genotype, LPOST
[7] = 'Merit' sensitive genotype, EPOST
[8] = 'Merit' sensitive genotype, LPOST

CS(=O)(=O)c1ccc(C(=O)C2C(=O)CCCC2=O)c([N+](=O)[O-])c1 [Mesotrione*CALLISTO, mesotrione]
Leaf Tissue Visual Bleaching (%) ([1]; ‘Incredible’, 7 DAT, EPOST): 16% | Leaf Tissue Visual Bleaching (%) ([1]; ‘Incredible’, 7 DAT, LPOST): 11% | Leaf Tissue Visual Bleaching (%) ([1]; ‘Incredible’, 14 DAT, EPOST): 9% | Leaf Tissue Visual Bleaching (%) ([1]; ‘Incredible’, 14 DAT, LPOST): 9% | Leaf Tissue Visual Bleaching (%) ([1]; ‘Incredible’, 21 DAT, EPOST): 8% | Leaf Tissue Visual Bleaching (%) ([1]; ‘Incredible’, 21 DAT, LPOST): 1% | Leaf Tissue Visual Bleaching (%) ([1]; ‘Merit’, 7 DAT, EPOST): 61% | Leaf Tissue Visual Bleaching (%) ([1]; ‘Merit’, 7 DAT, LPOST): 34% | Leaf Tissue Visual Bleaching (%) ([1]; ‘Merit’, 14 DAT, EPOST): 53% | Leaf Tissue Visual Bleaching (%) ([1]; ‘Merit’, 14 DAT, LPOST): 29% | Leaf Tissue Visual Bleaching (%) ([1]; ‘Merit’, 21 DAT, EPOST): 44% | Leaf Tissue Visual Bleaching (%) ([1]; ‘Merit’, 21 DAT, LPOST): 9% | Blade tissue pigments: Beta-carotene ([2]; 0 days after treatment): 17.2 mg/100 g fresh weight | Blade tissue pigments: Lutein ([2]; 0 days after treatment): 23.6 mg/100 g fresh weight | Blade tissue pigments: Phytoene ([2]; 0 days after treatment): 0.0 mg/100 g fresh weight | Blade tissue pigments: Total Carotenoids ([2]; 0 days after treatment): 57.5 mg/100 g fresh weight | Blade tissue pigments: Violaxanthin ([2]; 0 days after treatment): 6.9 mg/100 g fresh weight | Blade tissue pigments: Zeaxanthin ([2]; 0 days after treatment): 3.2 mg/100 g fresh weight | Blade tissue pigments: Beta-carotene ([2]; 3 days after treatment): 11.6 mg/100 g fresh weight | Blade tissue pigments: Lutein ([2]; 3 days after treatment): 14.8 mg/100 g fresh weight | Blade tissue pigments: Phytoene ([2]; 3 days after treatment): 37.5 mg/100 g fresh weight | Blade tissue pigments: Total Carotenoids ([2]; 3 days after treatment): 42.9 mg/100 g fresh weight | Blade tissue pigments: Violaxanthin ([2]; 3 days after treatment): 1.6 mg/100 g fresh weight | Blade tissue pigments: Zeaxanthin ([2]; 3 days after treatment): 3.1 mg/100 g fresh weight | Blade tissue pigments: Beta-carotene ([2]; 7 days after treatment): 7.4 mg/100 g fresh weight | Blade tissue pigments: Lutein ([2]; 7 days after treatment): 14.1 mg/100 g fresh weight | Blade tissue pigments: Phytoene ([2]; 7 days after treatment): 38.0 mg/100 g fresh weight | Blade tissue pigments: Total Carotenoids ([2]; 7 days after treatment): 35.6 mg/100 g fresh weight | Blade tissue pigments: Violaxanthin ([2]; 7 days after treatment): 1.6 mg/100 g fresh weight | Blade tissue pigments: Zeaxanthin ([2]; 7 days after treatment): 3.3 mg/100 g fresh weight | Blade tissue pigments: Beta-carotene ([2]; 14 days after treatment): 7.6 mg/100 g fresh weight | Blade tissue pigments: Lutein ([2]; 14 days after treatment): 16.4 mg/100 g fresh weight | Blade tissue pigments: Phytoene ([2]; 14 days after treatment): 11.7 mg/100 g fresh weight | Blade tissue pigments: Total Carotenoids ([2]; 14 days after treatment): 47.2 mg/100 g fresh weight | Blade tissue pigments: Violaxanthin ([2]; 14 days after treatment): 3.5 mg/100 g fresh weight | Blade tissue pigments: Zeaxanthin ([2]; 14 days after treatment): 3.8 mg/100 g fresh weight | Blade tissue pigments: Beta-carotene ([2]; 21 days after treatment): 11.4 mg/100 g fresh weight | Blade tissue pigments: Lutein ([2]; 21 days after treatment): 21.2 mg/100 g fresh weight | Blade tissue pigments: Phytoene ([2]; 21 days after treatment): 0.0 mg/100 g fresh weight | Blade tissue pigments: Total Carotenoids ([2]; 21 days after treatment): 60.1 mg/100 g fresh weight | Blade tissue pigments: Violaxanthin ([2]; 21 days after treatment): 4.0 mg/100 g fresh weight | Blade tissue pigments: Zeaxanthin ([2]; 21 days after treatment): 4.7 mg/100 g fresh weight | Blade tissue pigments: Beta-carotene ([2]; 28 days after treatment): 18.9 mg/100 g fresh weight | Blade tissue pigments: Lutein ([2]; 28 days after treatment): 32.1 mg/100 g fresh weight | Blade tissue pigments: Phytoene ([2]; 28 days after treatment): 0.0 mg/100 g fresh weight | Blade tissue pigments: Total Carotenoids ([2]; 28 days after treatment): 77.2 mg/100 g fresh weight | Blade tissue pigments: Violaxanthin ([2]; 28 days after treatment): 2.8 mg/100 g fresh weight | Blade tissue pigments: Zeaxanthin ([2]; 28 days after treatment): 5.7 mg/100 g fresh weight | Blade tissue pigments: Beta-carotene ([2]; 35 days after treatment): 21.2 mg/100 g fresh weight | Blade tissue pigments: Lutein ([2]; 35 days after treatment): 37.1 mg/100 g fresh weight | Blade tissue pigments: Phytoene ([2]; 35 days after treatment): 0.0 mg/100 g fresh weight | Blade tissue pigments: Total Carotenoids ([2]; 35 days after treatment): 92.7 mg/100 g fresh weight | Blade tissue pigments: Violaxanthin ([2]; 35 days after treatment): 6.8 mg/100 g fresh weight | Blade tissue pigments: Zeaxanthin ([2]; 35 days after treatment): 6.4 mg/100 g fresh weight | pigments in treated plants ([2]; 0.28 kg/ha postemergence, after initial decrease with tissue whitening): most recovered to untreated levels by 21 DAT | lutein, β-carotene, and zeaxanthin versus untreated control plants ([2]; 0.28 kg/ha postemergence, at 35 DAT): accumulated to levels exceeding untreated control plants | phytoene detection ([2]; 0.28 kg/ha postemergence, sampled 0 to 35 DAT): only detected in mesotrione treated plants at 3, 7, and 14 DAT | Fructose, percent increase [3]: 18% | Gamma-tocopherol, percent increase [3]: 5% | Glucose, percent increase [3]: 19% | Lutein, percent increase [3]: 17% | Maltose, percent increase [3]: 15% | Sucrose, percent increase [3]: −32% | Total Sugars, percent increase [3]: −4% | Zeaxanthin, percent increase [3]: 1% | antheraxanthin, percent increase [3]: 14% | Lutein % change from untreated control [4, 5]: −6.4% | Zeaxanthin % change from untreated control [4, 5]: −7.4% | Kernel carotenoids: Lutein ([4]; 'Incredible' moderately sensitive genotype, EPOST, untreated 0.328): 0.307 | Kernel carotenoids: Zeaxanthin ([4]; 'Incredible' moderately sensitive genotype, EPOST, untreated 0.448): 0.415 | Lutein % change from untreated control [4, 6]: +4.6% | Zeaxanthin % change from untreated control [4, 6]: +1.3% | Kernel carotenoids: Lutein ([4]; 'Incredible' moderately sensitive genotype, LPOST, untreated 0.328): 0.343 | Kernel carotenoids: Zeaxanthin ([4]; 'Incredible' moderately sensitive genotype, LPOST, untreated 0.448): 0.454 | Lutein % change from untreated control [4, 7]: +7.8% | Zeaxanthin % change from untreated control [4, 7]: +12.0% | Kernel carotenoids: Zeaxanthin ([4]; 'Merit' sensitive genotype, EPOST, untreated 0.509): 0.570 | Kernel carotenoids: Lutein [4, 8]: 0.577 | Lutein % change from untreated control [4, 8]: +8.7% | Zeaxanthin % change from untreated control [4, 8]: −3.7% | Kernel carotenoids: Zeaxanthin ([4]; 'Merit' sensitive genotype, LPOST, untreated 0.509): 0.409
